Measured values from patent US20150374646A1, “TREATMENT OF CANCER AND OTHER CONDITIONS USING A TRANSCRIPTION FACTOR MODULATOR” (C & C BIOPHARMA, LLC, priority 2013, published 2015).

How the values were obtained:
RPMI-8226 = assay: Leukemia cell growth inhibition, CellTiter-Glo (Example 1); assay type: cell-based; details: Homo sapiens; RPMI-8226, Multiple myeloma; 72 hours
Experimental: Various human leukemia cells were grown to the logarithmic growth phase and seeded into 24-well plates. […] Treated cells were further incubated for 72 hours and then were examined for cell proliferation. Cell proliferation was determined using the CellTiter-Glo Luminescence Cell Viability assay (Promega Corporation, Madison, Wis.) according to the manufacturer's protocol. The calculated inhibition rate was determined with the following formula: Inhibition rate (%)=(1−Luminescence of experimental group/Luminescence of control group)×100. IC50 is the calculated concentration of a compound needed to inhibit half of the maximum cell growth (equivalent to cell growth in control group) based on the corresponding dose-response curve under the described experimental conditions.

MCF7 = assay: Cancer cell line growth inhibition, CellTiter-Glo (Example 3); assay type: cell-based; details: Homo sapiens, Breast, 72 hours, read-out: IC50
Experimental: (§1) YT30 was tested for growth inhibition against 67 human cancer cell lines derived from diverse tissues including the National Cancer Institute human cancer cell lines (NCI-60). […] Cells in different wells were treated with various concentrations of YT30, YT86, YT88, or YT128. […] Cell viabilities were determined by the CellTiter-Glo Luminescence Cell Viability assay kit (Promega Corporation, Madison, Wis.) according to manufacturer's protocol.

NCI-H23 = assay: as above; assay type: cell-based; details: Homo sapiens, NSCLC, 72 hours
Experimental: as §1

SEM cells = assay: as above; assay type: cell-based; details: Homo sapiens, Leukemia, 72 hours
Experimental: as §1

K562 = assay: as above; assay type: cell-based; details: Homo sapiens, Leukemia, 72 hours, read-out: IC50
Experimental: as §1

HeLa = assay: as above; assay type: cell-based; details: Homo sapiens, Cervical, 72 hours, read-out: IC50
Experimental: as §1

PC-3 = assay: as above; assay type: cell-based; details: Homo sapiens, Prostate, 72 hours
Experimental: as §1

SK-MEL-5 = assay: as above; assay type: cell-based; details: Homo sapiens, Melanoma, 72 hours
Experimental: as §1

UO-31 = assay: as above; assay type: cell-based; details: Homo sapiens, Renal, 72 hours, read-out: IC50
Experimental: as §1

SK-OV-3 = assay: as above; assay type: cell-based; details: Homo sapiens, Ovary, 72 hours
Experimental: as §1

SF-295 = assay: as above; assay type: cell-based; details: Homo sapiens, CNS, 72 hours, read-out: IC50
Experimental: as §1

siHa = assay: as above; assay type: cell-based; details: Homo sapiens, Cervical, 72 hours, read-out: IC50
Experimental: as §1

M14 = assay: as above; assay type: cell-based; details: Homo sapiens, Melanoma, 72 hours
Experimental: as §1

Colo 205 = assay: as above; assay type: cell-based; details: Homo sapiens, Colon, 72 hours
Experimental: as §1

TK-10 = assay: as above; assay type: cell-based; details: Homo sapiens, Renal, 72 hours, read-out: IC50
Experimental: as §1

NCI-H226 = assay: as above; assay type: cell-based; details: Homo sapiens, NSCLC, 72 hours
Experimental: as §1

SK-MEL-28 = assay: as above; assay type: cell-based; details: Homo sapiens, Melanoma, 72 hours
Experimental: as §1

UACC-257 = assay: as above; assay type: cell-based; details: Homo sapiens, Melanoma, 72 hours
Experimental: as §1

MALME-3M = assay: as above; assay type: cell-based; details: Homo sapiens, Melanoma, 72 hours
Experimental: as §1

RCH-HCV = assay: as above; assay type: cell-based; details: Homo sapiens, Leukemia, 72 hours
Experimental: as §1

HOP-92 = assay: as above; assay type: cell-based; details: Homo sapiens, NSCLC, 72 hours
Experimental: as §1

Caski = assay: as above; assay type: cell-based; details: Homo sapiens, Ca-Ski, Cervical, 72 hours, read-out: IC50
Experimental: as §1

OVCAR-3 = assay: as above; assay type: cell-based; details: Homo sapiens, Ovary, 72 hours, read-out: IC50
Experimental: as §1

NCI-H460 = assay: as above; assay type: cell-based; details: Homo sapiens, NSCLC, 72 hours
Experimental: as §1

CAK1 = assay: as above; assay type: cell-based; details: Homo sapiens, Renal, 72 hours
Experimental: as §1

LOX IMVI = assay: as above; assay type: cell-based; details: Homo sapiens, Melanoma, 72 hours
Experimental: as §1

HS 578T = assay: as above; assay type: cell-based; details: Homo sapiens, Breast, 72 hours, read-out: IC50
Experimental: as §1

MV4-11 cells = assay: Subcutaneous MV4-11 leukemia tumor growth in NOD/SCID mice (Example 5); assay type: in vivo
Experimental: Female Nonobese Diabetic/Severe Combined Immunodeficiency (NOD/SCID) mice that were 4-6 weeks old were used in the experiment. The mice were fed under specific pathogen free (SPF) conditions. Food and water were available to the mice at will. A suspension of 1×10^7 cells per mouse B-myelomonocytic leukemia MV4-11 cells (0.2 mL) in logarithmic phase were inoculated subcutaneously into the right back of the NOD/SCID nude mice.
The general conditions of the mice and the growth of the transplanted tumor were monitored. […] The control group received an intraperitoneal (IP) injection of 0.2 mL of solvent (20% DMSO, 80% of 20% w/v (2-hydroxypropyl)-β-cyclodextrin made in PBS). […] The high dosage group received an intraperitoneal injection of 50 mg/kg/day of YT30 (0.2 mL in volume) suspended in solvent (20% DMSO, 80% of 20% w/v (2-hydroxypropyl)-β-cyclodextrin made in PBS), while the low dosage group received IP injection of 25 mg/kg/day YT30 (0.2 mL in volume). Frequency of the administration was once per day and the experiment lasted 27 days after treatment started.
The body weights of the mice were recorded prior to the start of treatment and twice every week thereafter. Each mouse of every group was monitored daily for any other symptoms of side effects including change in behavior, activity or posture, areas of redness and swelling, and food and water withdrawal. Caliper measurements of the longest perpendicular tumor diameters were performed every 2 days to estimate the tumor volume; the following formula: 4π/3×(width/2)^2×(length/2) was used to calculate the three-dimensional volume of an ellipse. The tumor inhibition rate was calculated according to tumor volume: Tumor inhibition rate by size (%)=(Tumor volume of the control group−Tumor volume of the treated group)/Tumor volume of the control group×100. The mice were euthanized on the next day after the final injection and the subcutaneous tumor nodules were taken out intact and weighed. The tumor inhibition rate was calculated again according to tumor weight: Tumor inhibition rate by weight (%)=(Tumor weight of the control group−Tumor weight of the treated group)/Tumor weight of the control group×100).

`Nc1ccccc1NC(=O)CCCCCC(=O)Nc1cccc(Br)c1` [YT30] gave an IC50 (RPMI-8226) of 2 µM, an IC50 (MCF7) of 6.84 µM and an IC50 (NCI-H23) of 11 µM. The IC50 (SEM cells) was 1.15 µM, the IC50 (K562) was 1.82 µM and the IC50 (HeLa) was 4.3 µM. It also gave an IC50 (PC-3) of 9.79 µM, an IC50 (SK-MEL-5) of 3.87 µM and an IC50 (UO-31) of 10.7 µM. The IC50 (SK-OV-3) was 8.09 µM, the IC50 (SF-295) was 10.3 µM and the IC50 (siHa) was 13.1 µM. The IC50 (M14) was 6.13 µM, the IC50 (Colo 205) was 14.4 µM and the IC50 (TK-10) was 16.1 µM. The IC50 (NCI-H226) was 12.7 µM, the IC50 (SK-MEL-28) was 5.99 µM and the IC50 (UACC-257) was 6.1 µM. The IC50 (MALME-3M) was 5.84 µM, the IC50 (RCH-HCV) was 0.79 µM and the IC50 (HOP-92) was 11 µM. For the same molecule, the IC50 (Caski) was 5 µM, the IC50 (OVCAR-3) was 9.17 µM and the IC50 (NCI-H460) was 5.41 µM. The IC50 (CAK1) was 11.7 µM, the IC50 (LOX IMVI) was 3.03 µM and the IC50 (HS 578T) was 10.8 µM. For the same molecule, the “Average body weight (g, x ± s) End point” value (MV4-11 cells; 25 mg/kg I.P. × 27 days) was 21.33 ± 1.26 g, the “Average body weight (g, x ± s) Initial” value (MV4-11 cells; 25 mg/kg I.P. × 27 days) was 21.61 ± 1.18 g and the “Body weight change (%)” value (MV4-11 cells; 25 mg/kg I.P. × 27 days) was −1.0%. The “Tumor growth Inhibition by weight (%)” value (MV4-11 cells; 25 mg/kg I.P. × 27 days) was 38.8%, the “Tumor size (mm^3)” value (MV4-11 cells; 25 mg/kg I.P. × 27 days) was 1072.31 ± 296.29 mm^3 and the “Tumor weight (g, x ± s)” value (MV4-11 cells; 25 mg/kg I.P. × 27 days) was 1.35 ± 0.47 g. For the same molecule, the “Tumor growth Inhibition by size (%)” value (MV4-11 cells; 25 mg/kg I.P. × 27 days (low dosage)) was 51.0%, the “Average body weight (g, x ± s) End point” value (MV4-11 cells; 50 mg/kg I.P. × 27 days) was 18.86 ± 1.38 g and the “Average body weight (g, x ± s) Initial” value (MV4-11 cells; 50 mg/kg I.P. × 27 days) was 21.02 ± 0.97 g. For the same molecule, the “Body weight change (%)” value (MV4-11 cells; 50 mg/kg I.P. × 27 days) was −6.8%, the “Tumor growth Inhibition by weight (%)” value (MV4-11 cells; 50 mg/kg I.P. × 27 days) was 58.8% and the “Tumor size (mm^3)” value (MV4-11 cells; 50 mg/kg I.P. × 27 days) was 774.63 ± 269.10 mm^3. The “Tumor weight (g, x ± s)” value (MV4-11 cells; 50 mg/kg I.P. × 27 days) was 0.91 ± 0.27 g and the “Tumor growth Inhibition by size (%)” value (MV4-11 cells; 50 mg/kg I.P. × 27 days (high dosage)) was 64.6%.
